In experiment [1] the test system is K562A7 parental leukemia cells. Kind of experiment: Cell proliferation assay (MTS/PMS), K562A7 parental. The settings on record: Homo sapiens, 96 h, 4-day incubation, mean ± SE of at least two experiments, read-out: Sensitivity to cell killing, IC50. It counts as cell-based. The procedure:
(§1) The activity of the compound of formula (I) on P-glycoprotein- or Multidrug Resistant Protein-expressing tumour cell lines and respective parental cells, K562/C1,000+ and K562A7, COR-L23/R and COR-L23, was compared to that of a known substrate for P-glycoprotein/Multidrug Resistant Protein, adriamycin.
(§2) All samples tested were dissolved in DMSO and further dilutions (typically 1:1,000) were made in culture medium, with final DMSO concentrations never exceeding 0.1% (v/v) in cell proliferation assays. MTT [3-(4,5-dimethylthiazol-2-yl)-2,5-diphenyltetrazolium bromide], MTS [3-(4,5-dimethylthiazol-2-yl)-5-(3-carboxymethoxyphenyl)-2-(4-sulfophenyl)-2H-tetrazolium inner salt] and PMS [phenazine methosulfate] were dissolved in phosphate-buffered saline (PBS).
(§3) MTT and MTS are both tetrazolium salts widely used in cell proliferation and toxicity tests. Upon entry in a viable cell, these tetrazolium salts are (bio)reduced to an intensely colored formazan derivative. In case of MTT, the formed formazan is crystalline and needs to be dissolved before colorimetric quantification. MTS needs an intermediate electron acceptor (PMS) for its efficient reduction into a soluble formazan end product and is used for suspension cell lines. […]

For a further experiment, the system named is COR-L23/R cells. Description: Cell proliferation assay (MTT), COR-L23/R Multidrug Resistant Protein overexpressing. It counts as cell-based, human. As to the method:
as §1, §2, §3

Another experiment has as its system K562/C1,000+ cells. Description: Cell proliferation assay (MTS/PMS), K562/C1,000+ P-glycoprotein overexpressing. The format is cell-based, human. The procedure: as §1, §2, §3
The next experiment deals with COR-L23 cells. Description: Cell proliferation assay (MTT), COR-L23 parental. The format is cell-based. The settings on record: Homo sapiens, 96 h, 4-day incubation, mean ± SE of at least two experiments, read-out: Sensitivity to cell killing, IC50. The procedure: as §1, §2, §3

The term IC50 denotes the point on the concentration scale where inhibition reaches its midpoint.

Each structure is given as a SMILES string.

For the compound `COc1cccc2c1C(=O)c1c(O)c3c(c(O)c1C2=O)C[C@@](O)(C(=O)CO)C[C@@H]3O[C@H]1C[C@H](N)[C@H](O)[C@H](C)O1` [Adriamycin, adriamycin], the IC50 was 26.8 ± 5.82 nM in experiment [1]; 676 ± 261 nM in the experiment on COR-L23/R cells (Homo sapiens, 96 h, COR-L23/R Multidrug Resistant Protein overexpressing cells, 4-day incubation, mean ± SE of at least two experiments, read-out: Sensitivity to cell killing, IC50); 7830 nM in the experiment with K562/C1,000+ cells (Homo sapiens, 96 h, K562/C1,000+ P-glycoprotein overexpressing cells, 4-day incubation, mean ± SE of at least two experiments, read-out: Sensitivity to cell killing, IC50); 36.6 ± 19.1 nM in the experiment with COR-L23 cells. Also, the “Resistance to cell killing as compared to parental cell line” value in the experiment with COR-L23/R cells (COR-L23/R versus parental COR-L23) is recorded as 20 fold; with K562/C1,000+ cells (K562/C1,000+ versus parental K562A7), 250 fold.

For the origin of these results see patent US7803600B2 (priority 2002, dated 2010).
